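Tested at 5 concentrations; 48 h exposure; 96-well plates; endpoints linearly interpolated, else capped at highest concentration. At the TGI there is no net growth.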
Key:
Experiment in all cases: NCI tumour cell line growth inhibition, 48 h
K-562 leukemia = test system: K-562 leukemia
KM12 colon = test system: KM12 colon
SW-620 colon = test system: SW-620 colon
UACC-62 melanoma = test system: UACC-62 melanoma
UACC-257 melanoma = test system: UACC-257 melanoma
CAKI-1 renal = test system: CAKI-1 renal
HCC-2998 colon = test system: HCC-2998 colon
NCI-H522 lung = test system: NCI-H522 lung
KM20L2 colon = test system: KM20L2 colon
SK-OV-3 ovarian = test system: SK-OV-3 ovarian
SK-MEL-2 melanoma = test system: SK-MEL-2 melanoma
SNB-19 CNS = test system: SNB-19 CNS
SK-MEL-5 melanoma = test system: SK-MEL-5 melanoma
OVCAR-3 ovarian = test system: OVCAR-3 ovarian
NCI-H226 lung = test system: NCI-H226 lung
SK-MEL-28 melanoma = test system: SK-MEL-28 melanoma
DMS 114 small cell lung = test system: DMS 114 small cell lung
SNB-78 CNS = test system: SNB-78 CNS
SF-539 CNS = test system: SF-539 CNS
HL-60(TB) leukemia = test system: HL-60(TB) leukemia
NCI-H460 lung = test system: NCI-H460 lung
HCT-116 colon = test system: HCT-116 colon
ACHN renal = test system: ACHN renal
HOP-62 NSCLC = test system: HOP-62 NSCLC
OVCAR-5 ovarian = test system: OVCAR-5 ovarian
OVCAR-4 ovarian = test system: OVCAR-4 ovarian
M14 melanoma = test system: M14 melanoma
COLO 205 colon = test system: COLO 205 colon
SF-295 CNS = test system: SF-295 CNS
RXF-631 renal = test system: RXF-631 renal
CCRF-CEM leukemia = test system: CCRF-CEM leukemia
HOP-92 NSCLC = test system: HOP-92 NSCLC
OVCAR-8 ovarian = test system: OVCAR-8 ovarian
SNB-75 CNS = test system: SNB-75 CNS
DMS 273 small cell lung = test system: DMS 273 small cell lung
MALME-3M melanoma = test system: MALME-3M melanoma
UO-31 renal = test system: UO-31 renal
MOLT-4 leukemia = test system: MOLT-4 leukemia
DLD-1 colon = test system: DLD-1 colon
HCT-15 colon = test system: HCT-15 colon
SN12C renal = test system: SN12C renal
NCI-H23 lung = test system: NCI-H23 lung
RPMI-8226 leukemia = test system: RPMI-8226 leukemia
A549 NSCLC = test system: A549 NSCLC
U251 CNS = test system: U251 CNS
LXFL 529 NSCLC = test system: LXFL 529 NSCLC
HT29 colon = test system: HT29 colon
SR leukemia = test system: SR leukemia
786-0 renal = test system: 786-0 renal
RXF 393 renal = test system: RXF 393 renal
EKVX NSCLC = test system: EKVX NSCLC
IGROV1 ovarian = test system: IGROV1 ovarian
HOP-18 NSCLC = test system: HOP-18 NSCLC
SF-268 CNS = test system: SF-268 CNS
LOX IMVI melanoma = test system: LOX IMVI melanoma
M19-MEL melanoma = test system: M19-MEL melanoma
A498 renal = test system: A498 renal
XF 498 CNS = test system: XF 498 CNS
TK-10 renal = test system: TK-10 renal

Measured: TGI

Cc1nc(-c2ccccc2)cc2c1c(=O)oc1ccccc12
not listed: LOX IMVI melanoma | M19-MEL melanoma | A498 renal | XF 498 CNS | TK-10 renal
> 100 µM: all other assays above

O=S(=O)(N/N=C/c1cccc(Cl)c1Cl)c1ccccc1
82.5 µM: HOP-92 NSCLC
58.1 µM: MOLT-4 leukemia
90.3 µM: DMS 114 small cell lung
not listed: NCI-H522 lung | SNB-19 CNS | RXF-631 renal
> 100 µM: all other assays above

Reference: PubChem BioAssay (NCI)
